Earlier results on four molecules are cited in publication PMC10088252.

Read-outs that look alike come from different tables or passages of the source.

The test system of data set [1] is NSCLC harboring MET exon 14 skipping mutation. Set-up: method as in PMID 34166627. Particulars: cited from earlier work.
Data set [2] concerns MET- or ROS1-positive NSCLC. Also on record: method as in PMID 31584608. The following applies: cited from earlier work.
For data set [3], the system named is MET exon 14-mutated or MET-amplified NSCLC. Also on record: method as in PMID 32877583. Particulars: cited from earlier work.
The subject of data set [4] is MET-positive solid tumors. Set-up: method as in PMID 31778267. The following applies: all patients (76); cited from earlier work.
In data set [5] the test system is MET exon 14-mutated NSCLC. Set-up: method as in PMID 35720834. Particulars: real-world; cited from earlier work.
The subject of data set [6] is advanced solid tumors with c-MET H-score of ≥ 150. Also on record: method as in PMID 30285518. Particulars: 16 patients with NSCLC; cited from earlier work.
Where [7] appears, read: of 13 patients with brain metastases at baseline.

On to `C[C@@H](c1ccc2nccn2c1)n1nnc2ncc(-c3cnn(C)c3)nc21` [savolitinib], for which, in data set [1] (15 MET exon 14-mutated NSCLC patients with brain metastases), the DCR is recorded as 93.3%. In addition, in data set [1], the “grade ≥ 3 TRAE increased ALT” value is given as 10%, the “grade ≥ 3 TRAE increased AST” value is 13%, the “grade ≥ 3 TRAE peripheral oedema” value is listed as 9% and the “incidence of grade ≥ 3 TRAEs” value is reported as 46%. Also, the ORR in data set [1] (patients harboring MET exon 14 skipping mutation, FAS) is 42.9%.
With `C[C@@H](Oc1cc(-c2cnn(C3CCNCC3)c2)cnc1N)c1c(Cl)ccc(F)c1Cl` [crizotinib], the figures for the ORR in data set [2] (MET copy number ≥ 6) and in data set [2] (MET mutation) were 16% and 10.7%, respectively.
`CNC(=O)c1ccc(-c2cnc3ncc(Cc4ccc5ncccc5c4)n3n2)cc1F` [capmatinib]: the ORR in data set [3] (MET amplification, gene copy number < 10) was 7–12%; in data set [3] (MET amplification, gene copy number ≥ 10, previously treated), 29%; in data set [3] (MET amplification, gene copy number ≥ 10, treatment-naïve), 40%; in data set [3] (patients harboring MET exon 14 skipping mutation), 41%; in data set [3] (previously treated MET exon 14-mutated NSCLC), 41%; in data set [3] (treatment-naïve MET exon 14-mutated NSCLC), 68%. Further, the ORR in data set [5] is listed as 58%. Besides, the TEAE nausea in data set [3] is reported as 45%. Moreover, the TEAE peripheral edema in data set [3] was 51%. Besides, the “patients who discontinued treatment due to TRAEs” value in data set [3] is given as 11%. In addition, the “patients achieving intracranial response” value in data set [3] (setting [7]) is on record as “Seven”. The “patients with intracranial CR” value in data set [3] (setting [7]) was “four”. Further, in data set [4], the DCR is 26%. In addition, the “median PFS” value in data set [5] is given as 9.5 months.

B1: telisotuzumab vedotin (conjugate, chains of the INN, looked up)
VH: QVQLVQSGAEVKKPGASVKVSCKASGYIFTAYTMHWVRQAPGQGLEWMGWIKPNNGLANYAQKFQGRVTMTRDTSISTAYMELSRLRSDDTAVYYCARSEITTEFDYWGQGTLVTVSS
VL: DIVMTQSPDSLAVSLGERATINCKSSESVDSYANSFLHWYQQKPGQPPKLLIYRASTRESGVPDRFSGSGSGTDFTLTISSLQAEDVAVYYCQQSKEDPLTFGGGTKVEIK
modifications: vedotin (MMAE) payload
For B1, the DCR in data set [6] is recorded as 56%.
